PubChem BioAssay AID330 (DTP/NCI, 2004)
“And” between values parts separate entries of the source, which are not always exact repeats. Equal entries are not always repeated. Toxic doses and inconclusive results are not listed. The calls were made as follows: active = survival T/C of 150% or more; inactive = T/C below 125% in these data.

Test system: P388 leukemia ip, CD2F1 mice, survival T/C
Assay: NCI In Vivo Anticancer Drug Screen. Data for tumor model P388 Leukemia (intraperitoneal) in CD2F1 (CDF1) mice
Conditions: endpoint: median survival time, higher = longer survival
Method in brief: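 Mice carrying the transplanted tumor received test compound or vehicle. Survival was recorded in each group, and the value is the treated-group measurement divided by that of the vehicle-treated control group.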

[1] = dose: 50.0 mg/kg/injection, schedule: Q01DX005 (ip), vehicle: Klucel (hydroxypropylcellulose) (HPC)
[2] = dose: 100.0 mg/kg/injection, schedule: Q01DX005 (ip), vehicle: Klucel (hydroxypropylcellulose) (HPC)
[3] = dose: 200.0 mg/kg/injection, schedule: Q01DX005 (ip), vehicle: Klucel (hydroxypropylcellulose) (HPC)
[4] = dose: 60.0 mg/kg/injection, schedule: Q01DX005 (ip), vehicle: saline with Tween-80
[5] = dose: 120.0 mg/kg/injection, schedule: Q01DX005 (ip), vehicle: saline with Tween-80
[6] = dose: 240.0 mg/kg/injection, schedule: Q01DX005 (ip), vehicle: saline with Tween-80
[7] = dose: 50.0 mg/kg/injection, schedule: Q01DX009 (ip), vehicle: saline
[8] = dose: 100.0 mg/kg/injection, schedule: Q01DX009 (ip), vehicle: saline
[9] = dose: 200.0 mg/kg/injection, schedule: Q01DX009 (ip), vehicle: saline
[10] = dose: 25.0 mg/kg/injection, schedule: Q01DX005 (ip), vehicle: saline with Tween-80
[11] = dose: 50.0 mg/kg/injection, schedule: Q01DX005 (ip), vehicle: saline with Tween-80
[12] = dose: 100.0 mg/kg/injection, schedule: Q01DX005 (ip), vehicle: saline with Tween-80
[13] = dose: 200.0 mg/kg/injection, schedule: Q01DX005 (ip), vehicle: saline with Tween-80
[14] = dose: 100.0 mg/kg/injection, schedule: Q04DX002 (ip), vehicle: saline with Tween-80
[15] = dose: 200.0 mg/kg/injection, schedule: Q04DX002 (ip), vehicle: saline with Tween-80
[16] = dose: 60.0 mg/kg/injection, schedule: Q01DX005 (ip), vehicle: Klucel (hydroxypropylcellulose) (HPC)
[17] = dose: 120.0 mg/kg/injection, schedule: Q01DX005 (ip), vehicle: Klucel (hydroxypropylcellulose) (HPC)
[18] = dose: 240.0 mg/kg/injection, schedule: Q01DX005 (ip), vehicle: Klucel (hydroxypropylcellulose) (HPC)
[19] = dose: 25.0 mg/kg/injection, schedule: Q01DX005 (ip), vehicle: Klucel (hydroxypropylcellulose) (HPC)
[20] = dose: 25.0 mg/kg/injection, schedule: Q01DX009 (ip), vehicle: other
[21] = dose: 50.0 mg/kg/injection, schedule: Q01DX009 (ip), vehicle: other
[22] = dose: 100.0 mg/kg/injection, schedule: Q01DX009 (ip), vehicle: other
[23] = dose: 200.0 mg/kg/injection, schedule: Q01DX009 (ip), vehicle: other

Measured: T/C

O=C(Nc1ccccc1)P(=O)(O)c1ccccc1
inactive: dose: 12.5 mg/kg/injection, schedule: Q01DX009 (ip), vehicle: Klucel (hydroxypropylcellulose) (HPC) 93 % of control | dose: 25.0 mg/kg/injection, schedule: Q01DX009 (ip), vehicle: Klucel (hydroxypropylcellulose) (HPC) 100 % of control | dose: 50.0 mg/kg/injection, schedule: Q01DX009 (ip), vehicle: Klucel (hydroxypropylcellulose) (HPC) 97 % of control | dose: 100.0 mg/kg/injection, schedule: Q01DX009 (ip), vehicle: Klucel (hydroxypropylcellulose) (HPC) 93 % of control

Cc1ccccc1-n1c(COc2c(C)cccc2C)n[nH]c1=S
inactive: [1] 93 % of control | [2] 97 % of control | [3] 99 % of control

O=C1C(Br)=C(O)C(c2ccccc2)N1c1ccccc1 (stereo not given)
inactive: [4] 110 % of control | [5] 94 % of control | [6] 113 % of control

Cc1onc(-c2c(F)cccc2Cl)c1C(=O)N[C@@H]1C(=O)N2[C@@H]1SC(C)(C)[C@@H]2C(=O)O
inactive: [7] 102 % of control | [8] 105 % of control | [9] 107 % of control

CCOC(=O)CC1(C)SCCN1C(=O)OCC (stereo not given)
inactive: [10] 102 % of control | [11] 98 % of control | [12] 91 % of control | [13] 105 % of control

CCOc1c(N=Nc2cccc(Cl)c2)c(C)nn1C(=S)S
inactive: dose: 15.0 mg/kg/injection, schedule: Q01DX005 (ip), vehicle: Klucel + Tween-80 94 % of control | dose: 30.0 mg/kg/injection, schedule: Q01DX005 (ip), vehicle: Klucel + Tween-80 90 % of control

COc1ccc(/C=N\N=C(/[O-])c2ccccc2O)cc1.COc1ccc(/C=N\N=C(/[O-])c2ccccc2O)cc1.[Co+2]
inactive: dose: 50.0 mg/kg/injection, schedule: Q04DX002 (ip), vehicle: saline with Tween-80 93 % of control | [14] 98 % of control | [15] 96 % of control

CCCS(=O)(=O)CCC(=O)c1ccccc1
inactive: dose: 100.0 mg/kg/injection, schedule: Q04DX002 (ip), vehicle: saline 101 % of control | dose: 200.0 mg/kg/injection, schedule: Q04DX002 (ip), vehicle: saline 107 % of control | dose: 400.0 mg/kg/injection, schedule: Q04DX002 (ip), vehicle: saline 102 % of control

O=C(NC(=O)c1c(F)cccc1F)Nc1cc(Cl)c(F)c(Cl)c1F
inactive: dose: 15.0 mg/kg/injection, schedule: Q01DX005 (ip), vehicle: Klucel (hydroxypropylcellulose) (HPC) 98 % of control | dose: 30.0 mg/kg/injection, schedule: Q01DX005 (ip), vehicle: Klucel (hydroxypropylcellulose) (HPC) 90 % of control and 93 % of control | [16] 87 % of control and 94 % of control | [17] 93 % of control | [18] 88 % of control

CCOC(=O)/C=C1\CSC2=NC(c3ccccc3)CN21 (stereo not given)
inactive: [16] 94 % of control | [17] 94 % of control | [18] 86 % of control

COCCCn1c(-c2ccc(Cl)cc2)nn2c(=O)c3ccccc3nc2c1=O
inactive: [7] 97 % of control | [8] 92 % of control | [9] 92 % of control

O=C(N/N=C/c1ccco1)C(=O)Nc1cccc(C(F)(F)F)c1
inactive: dose: 12.5 mg/kg/injection, schedule: Q01DX005 (ip), vehicle: Klucel (hydroxypropylcellulose) (HPC) 95 % of control | [19] 89 % of control | [1] 88 % of control and 95 % of control

CCOC(=O)/N=C1\SC2(CC(C)=C(C)CS2=O)C(O)=C1C(=O)OCC (stereo not given)
inactive: [4] 101 % of control | [5] 100 % of control | [6] 101 % of control

ClCC1CCNCC1
inactive: [7] 100 % of control | [8] 100 % of control | [9] 99 % of control

CNC(=S)N/N=C\C(C)=N/Nc1ccc(F)cc1
inactive: dose: 100.0 mg/kg/injection, schedule: Q04DX003 (ip), vehicle: saline 99 % of control | dose: 200.0 mg/kg/injection, schedule: Q04DX003 (ip), vehicle: saline 99 % of control | dose: 400.0 mg/kg/injection, schedule: Q04DX003 (ip), vehicle: saline 94 % of control

C/C(=N\NC(=S)N(C)C)c1ncccn1
inactive: dose: 12.5 mg/kg/injection, schedule: Q04DX003 (ip), vehicle: Klucel (hydroxypropylcellulose) (HPC) 107 % of control | dose: 25.0 mg/kg/injection, schedule: Q04DX003 (ip), vehicle: Klucel (hydroxypropylcellulose) (HPC) 103 % of control | dose: 50.0 mg/kg/injection, schedule: Q04DX003 (ip), vehicle: Klucel (hydroxypropylcellulose) (HPC) 105 % of control

O=C1c2ccccc2C(=O)N1CCc1ncc[nH]1
inactive: [4] 99 % of control | [5] 99 % of control | [6] 100 % of control

CCOC(=O)C(=CNc1ccc2c(C)cc3ccc(C(=O)OCC)c(=O)n3c2n1)C(=O)OCC
inactive: [1] 88 % of control | [2] 86 % of control

CC(C)(C)NC1/C(=C\c2ccccc2)C(=O)c2ccccc2C1(C)C (stereo not given)
inactive: [20] 109 % of control | [21] 101 % of control | [22] 110 % of control | [23] 124 % of control

COC(=O)C1CCC(c2ccccc2)(c2ccccc2)C1O.COC(=O)C1CCC(c2ccccc2)(c2ccccc2)C1O.[Cu] (stereo not given)
inactive: dose: 100.0 mg/kg/injection, schedule: Q01DX001 (ip), vehicle: Klucel (hydroxypropylcellulose) (HPC) 100 % of control | dose: 200.0 mg/kg/injection, schedule: Q01DX001 (ip), vehicle: Klucel (hydroxypropylcellulose) (HPC) 100 % of control | dose: 400.0 mg/kg/injection, schedule: Q01DX001 (ip), vehicle: Klucel (hydroxypropylcellulose) (HPC) 100 % of control

O=C(CNC(=O)c1ccccc1)N/N=C\c1c[nH]c2ccccc12
inactive: [4] 101 % of control | [5] 100 % of control | [6] 96 % of control

c1ccc(-c2cn3ccsc3n2)cc1
inactive: [20] 109 % of control | [21] 115 % of control | [22] 115 % of control | [23] 115 % of control

S=c1nc[nH]c2ccc3[nH]ncc3c12
inactive: dose: 6.25 mg/kg/injection, schedule: Q01DX005 (ip), vehicle: saline with Tween-80 93 % of control | dose: 12.5 mg/kg/injection, schedule: Q01DX005 (ip), vehicle: saline with Tween-80 90 % of control | [10] 92 % of control

N#CSCc1c(Cl)cccc1Cl
inactive: [20] 104 % of control | [21] 104 % of control | [22] 103 % of control | [23] 113 % of control

CCOC(=O)CC1(O)CSC(=C(C#N)C#N)S1 (stereo not given)
inactive: [11] 100 % of control | [12] 100 % of control | [13] 92 % of control

CN(C)c1ccc2c(c1)Oc1cc(N(C)C)ccc1C21c2ccccc2C(=O)N1N
inactive: [14] 100 % of control | [15] 90 % of control | dose: 400.0 mg/kg/injection, schedule: Q04DX002 (ip), vehicle: saline with Tween-80 90 % of control

CC1CC(=O)Nc2ncnc(N)c21 (stereo not given)
inactive: [4] 98 % of control | [5] 106 % of control | [6] 108 % of control

C[Si](C)(C)C12CC3(CCCCC3)C1NC(=O)NC2=O (stereo not given)
inactive: [19] 108 % of control | [1] 96 % of control | [2] 90 % of control | [3] 88 % of control

CN1CCCCC1CCN1c2ccccc2Sc2ccc(S(C)=O)cc21 (stereo not given)
inactive: dose: 12.5 mg/kg/injection, schedule: Q01DX005 (ip), vehicle: saline 100 % of control and 102 % of control and 105 % of control | dose: 25.0 mg/kg/injection, schedule: Q01DX005 (ip), vehicle: saline 100 % of control and 105 % of control and 114 % of control | dose: 100.0 mg/kg/injection, schedule: Q01DX005 (ip), vehicle: saline 102 % of control and 103 % of control

CNC(=O)C(C(=O)NC)c1ccccc1
inactive: dose: 100.0 mg/kg/injection, schedule: Q04DX003 (ip), vehicle: Klucel (hydroxypropylcellulose) (HPC) 95 % of control | dose: 200.0 mg/kg/injection, schedule: Q04DX003 (ip), vehicle: Klucel (hydroxypropylcellulose) (HPC) 95 % of control | dose: 400.0 mg/kg/injection, schedule: Q04DX003 (ip), vehicle: Klucel (hydroxypropylcellulose) (HPC) 96 % of control

CC1(c2ccccn2)C(=O)c2ccccc2C1=O
inactive: [1] 98 % of control | [2] 100 % of control | [3] 99 % of control

OCc1c(-c2ccc(Cl)cc2)c(-c2ccc(Cl)cc2)c2n1CCC2
inactive: [1] 92 % of control | [2] 92 % of control | [3] 92 % of control

O=C(Nc1ccccc1)N1CCOCC1
inactive: [4] 106 % of control | [5] 103 % of control | [6] 95 % of control
